Results published in patent US12559454B2, “Benzenesulfonamide derivatives and uses thereof” (2692372 Ontario, Inc., priority 2019, dated 2026).

Key:
[1] = system: MV4-11 cells; experiment: CellTiter-Blue cell viability, MV-4-11; format: cell-based; settings: Homo sapiens, 72 hrs exposure
Protocol: (§1) Anti-cancer efficacy of exemplary compounds of this application was assessed in vitro in different cancer cell lines. Cell viability was examined following treatment at various concentration of inhibitor (0.097656-50 μM) using a cell Titer-Blue cell viability assay. 1×10^4 cells (NHF, MV4-11, K562 and MOLM-13 cells)/well were plated in 96-well assay plates in culture medium. All cells were grown in DMEM, IMDM and RPMI-1640 supplemented with 10% FBS. After 24 hrs, test compounds and vehicle controls were added to appropriate wells so the final volume was 100 μl in each well. The cells were cultured for the desired test exposure period (72 hrs) at 37° C. and 5% CO2. The assay plates were removed from 37° C. incubator and 20 μl/well of CellTiter-Blue® Reagent was added. The plates were incubated using standard cell culture conditions for 1-4 hours and the plates were shaken for 10 seconds and record fluorescence at 560/590 nm.

[2] = system: MOLM-13 cells; experiment: CellTiter-Blue cell viability, MOLM-13; format: cell-based; settings: Homo sapiens, 72 hrs exposure
Protocol: as §1

[3] = system: K562 cells; experiment: CellTiter-Blue cell viability, K562; format: cell-based; settings: Homo sapiens, 72 hrs exposure
Protocol: as §1

[4] = system: tubulin; experiment: Tubulin polymerization assay; format: biochemical; settings: for % Inhibition: Vmax normalized to tubulin only control; for % D.O.P.: degree of polymerization relative to tubulin control
Protocol: A96-well half-area clear flat-bottom microplate (Corning® #3697) was pre-heated in a plate reader (Cytation 3, BioTek) at 37° C. for 15 minutes prior to the start of each assay. Tubulin polymerization buffer (80 mM PIPES pH 6.9, 2 mM MgCl2, 0.5 mM EGTA, 15% glycerol, 1 mM GTP) was prepared from stock solutions and placed on ice. Inhibitors were prepared to M concentrations in buffer (80 mM PIPES pH 6.9, 2 mM MgCl2, 0.5 mM EGTA, 5% DMSO) from DMSO stock solutions. After the assay plate was pre-warmed, 10 μL of inhibitor or buffer control was added to selected wells. Every assay contained a tubulin only negative control for normalization of data, and a batabulin positive control. The assay plate was incubated at 37° C. for 3 minutes. During this time, a frozen aliquot of tubulin (10 mg/mL) in buffer (80 mM PIPES pH 6.9, 2 mM MgCl2, 0.5 mM EGTA) was defrosted by placing in a room temperature water bath. Once thawed, 200 μL of tubulin was mixed with 420 μL ice cold tubulin polymerization buffer (3 mg/mL tubulin in 80 mM PIPES, pH 6.9, 2 mM MgCl2, 0.5 mM EGTA, 1 mM GTP, 10.2% glycerol). To a 96-well plate on ice, aliquots of 100 μL tubulin was added to each well. From this plate, 90 μL of tubulin was immediately pipetted into all sample wells of the warmed assay plate using a multi-channel pipette. The assay plate was immediately put in the reader at 37° C. and shook for 5 s with orbital shaking at medium speed. The reader recorded the absorbance at 340 nm every 15 s for 30 min.
The resulting absorbance curves were normalized by subtracting each data point by the absorbance at time 0.
The largest change in absorbance over the assay time course was also recorded and related to the tubulin control as the % degree of polymerization (% D.O.P.).

Compound | IC50 [1] [nM] | IC50 [2] [nM] | IC50 [3] [µM] | % Inhibition [4] | % D.O.P. [4]
CN(C)S(=O)(=O)c1c(F)c(F)c(F)c(F)c1F [Compound I-1, 2,3,4,5,6-pentafluoro-N,N-dimethylbenzenesulfonamide] | 1000 to 10000 | 1000 to 10000 | > 10 | A (<10%) | A (>85%)
CN(C)S(=O)(=O)c1c(F)c(F)c(F)c(F)c1OCc1ccccc1 [Compound I-2, 2-(benzyloxy)-3,4,5,6-tetrafluoro-N,N-dimethylbenzenesulfonamide] | 100 to 1000 | 1000 to 10000 | > 10 | – | –
CC(C)Oc1c(F)c(F)c(F)c(F)c1S(=O)(=O)N(C)C [Compound I-6, 2,3,4,5-tetrafluoro-6-isopropoxy-N,N-dimethylbenzenesulfonamide] | 1000 to 10000 | 1000 to 10000 | > 10 | – | –
CN(C)S(=O)(=O)c1c(F)c(F)c(F)c(F)c1OC(F)F [Compound I-8, 2-(difluoromethoxy)-3,4,5,6-tetrafluoro-N,N-dimethylbenzenesulfonamide] | 1000 to 10000 | > 10000 | > 10 | – | –
CN(C)S(=O)(=O)c1c(F)c(F)c(F)c(F)c1OCc1ccc(F)cc1F [Compound I-16, 2-((2,4-difluorobenzyl)oxy)-3,4,5,6-tetrafluoro-N,N-dimethylbenzenesulfonamide] | 100 to 1000 | 1000 to 10000 | > 10 | – | –
CN(C)S(=O)(=O)c1c(F)c(F)c(F)c(F)c1OCc1ccc(C(N)=O)cc1 [Compound I-18, 4-((2-(N,N-dimethylsulfamoyl)-3,4,5,6-tetrafluorophenoxy)methyl)benzamide] | 1000 to 10000 | 1000 to 10000 | > 10 | – | –
CN(C)S(=O)(=O)c1c(F)c(F)c(F)c(F)c1OCc1ccccn1 [Compound I-19, 2,3,4,5-tetrafluoro-N,N-dimethyl-6-(pyridin-2-ylmethoxy)benzenesulfonamide] | 1000 to 10000 | 1000 to 10000 | > 10 | – | –
CN(C)S(=O)(=O)c1c(F)c(F)c(F)c(F)c1OC(=O)OC(C)(C)C [Compound I-21, tert-butyl (2-(N,N-dimethylsulfamoyl)-3,4,5,6-tetrafluorophenyl) carbonate] | > 10000 | > 10000 | > 10 | – | –
CC(C)S(=O)(=O)Oc1c(F)c(F)c(F)c(F)c1S(=O)(=O)N(C)C [Compound I-22, 2-(N,N-dimethylsulfamoyl)-3,4,5,6-tetrafluorophenyl propane-2-sulfonate] | – | 1000 to 10000 | > 10 | – | –
CN(C)S(=O)(=O)c1c(F)c(F)c(F)c(F)c1Cc1ccccc1 [Compound I-24, 2-benzyl-3,4,5,6-tetrafluoro-N,N-dimethylbenzenesulfonamide] | 1000 to 10000 | 1000 to 10000 | > 10 | – | –
Cc1c(F)c(F)c(F)c(F)c1S(=O)(=O)N(C)C [Compound I-25, 2,3,4,5-tetrafluoro-N,N,6-trimethylbenzenesulfonamide] | – | 1000 to 10000 | > 10 | – | –
CC(=O)c1c(F)c(F)c(F)c(F)c1S(=O)(=O)N(C)C [Compound I-26, 2-acetyl-3,4,5,6-tetrafluoro-N,N-dimethylbenzenesulfonamide] | 1000 to 10000 | 1000 to 10000 | > 10 | – | –
COC(=O)c1c(F)c(F)c(F)c(F)c1S(=O)(=O)N(C)C [Compound I-31, methyl 2-(N,N-dimethylsulfamoyl)-3,4,5,6-tetrafluorobenzoate] | 100 to 1000 | 1000 to 10000 | > 10 | – | –
CC(C)COC(=O)c1c(F)c(F)c(F)c(F)c1S(=O)(=O)N(C)C [Compound I-32, isobutyl 2-(N,N-dimethylsulfamoyl)-3,4,5,6-tetrafluorobenzoate] | 100 to 1000 | 1000 to 10000 | > 10 | – | –
CN(C)C(=O)c1c(F)c(F)c(F)c(F)c1S(=O)(=O)N(C)C [Compound I-37, 2-(N,N-dimethylsulfamoyl)-3,4,5,6-tetrafluoro-N,N-dimethylbenzamide] | 1000 to 10000 | 1000 to 10000 | > 10 | – | –
CN(C)S(=O)(=O)c1c(F)c(F)c(F)c(F)c1C1CC1 [Compound I-39, 2-cyclopropyl-3,4,5,6-tetrafluoro-N,N-dimethylbenzenesulfonamide] | 1000 to 10000 | 1000 to 10000 | > 10 | – | –
CN(C)S(=O)(=O)c1c(F)c(F)c(F)c(F)c1NCc1ccccc1 [Compound I-48, 2-(benzylamino)-3,4,5,6-tetrafluoro-N,N-dimethylbenzenesulfonamide] | 1000 to 10000 | 1000 to 10000 | > 10 | – | –
CNc1c(F)c(F)c(F)c(F)c1S(=O)(=O)N(C)C [Compound I-49, 2,3,4,5-tetrafluoro-N,N-dimethyl-6-(methylamino)benzenesulfonamide] | 1000 to 10000 | 1000 to 10000 | > 10 | – | –
CN(C)S(=O)(=O)c1c(F)c(F)c(F)c(F)c1Nc1cccnc1 [Compound I-52, 2,3,4,5-tetrafluoro-N,N-dimethyl-6-(pyridin-3-ylamino)benzenesulfonamide] | 1000 to 10000 | > 10000 | 1 to 10 | – | –
CN(C)S(=O)(=O)c1c(F)c(F)c(F)c(F)c1NCC(F)F [Compound I-54, 2-((2,2-difluoroethyl)amino)-3,4,5,6-tetrafluoro-N,N-dimethylbenzenesulfonamide] | 1000 to 10000 | 1000 to 10000 | > 10 | – | –
COc1ccc(NS(=O)(=O)c2c(F)c(F)c(F)c(F)c2OC(C)C)cc1F [Compound I-61, 2,3,4,5-tetrafluoro-N-(3-fluoro-4-methoxyphenyl)-6-isopropoxybenzenesulfonamide] | 100 to 1000 | 100 to 1000 | 0.1 to 1 | A (<10%) | A (>85%)
COc1ccc(NS(=O)(=O)c2c(F)c(F)c(F)c(F)c2OCc2ccccc2)cc1F [Compound I-62, 2-(benzyloxy)-3,4,5,6-tetrafluoro-N-(3-fluoro-4-methoxyphenyl)benzenesulfonamide] | > 10000 | > 10000 | > 10 | A (<10%) | –
COc1ccc(NS(=O)(=O)c2c(F)c(F)c(F)c(F)c2OC)cc1F [Compound I-64, 2,3,4,5-tetrafluoro-N-(3-fluoro-4-methoxyphenyl)-6-methoxybenzenesulfonamide] | ≤ 100 | 100 to 1000 | 0.1 to 1 | A (<10%) | A (>85%)
COc1ccc(NS(=O)(=O)c2c(F)c(F)c(F)c(F)c2OCC(F)F)cc1F [Compound I-67, 2-(2,2-difluoroethoxy)-3,4,5,6-tetrafluoro-N-(3-fluoro-4-methoxyphenyl)benzenesulfonamide] | 100 to 1000 | 100 to 1000 | 0.1 to 1 | C (>20%) | B (< 85%)
COc1ccc(NS(=O)(=O)c2c(F)c(F)c(F)c(F)c2OCC(F)(F)F)cc1F [Compound I-68, 2,3,4,5-tetrafluoro-N-(3-fluoro-4-methoxyphenyl)-6-(2,2,2-trifluoroethoxy)benzenesulfonamide] | 100 to 1000 | 1000 to 10000 | 0.1 to 1 | B (10-20%) | B (< 85%)
COc1ccc(NS(=O)(=O)c2c(F)c(F)c(F)c(F)c2OCC2CC2)cc1F [Compound I-71, 2-(cyclopropylmethoxy)-3,4,5,6-tetrafluoro-N-(3-fluoro-4-methoxyphenyl)benzenesulfonamide] | 1000 to 10000 | > 10000 | 1 to 10 | A (<10%) | A (>85%)
COc1ccc(NS(=O)(=O)c2c(F)c(F)c(F)c(F)c2Oc2ccccc2)cc1F [Compound I-76, 2,3,4,5-tetrafluoro-N-(3-fluoro-4-methoxyphenyl)-6-phenoxybenzenesulfonamide] | – | 1000 to 10000 | 0.1 to 1 | C (>20%) | B (< 85%)
COc1ccc(NS(=O)(=O)c2c(F)c(F)c(F)c(F)c2C(=O)O)cc1F [Compound I-92, 2,3,4,5-tetrafluoro-6-(N-(3-fluoro-4-methoxyphenyl)sulfamoyl)benzoic acid] | 100 to 1000 | 1000 to 10000 | > 10 | – | –
